Publication PMC11818404, “Experimental and Computational Investigation of the Target and Mechanisms of Gelsemium Alkaloids in the Central Nervous System” (International Journal of Molecular Sciences, 2025)
Where two headings read alike, the source gives them in different places.

Experiments:
α1β2γ2 GABAAR = biological target: T1, α1β2γ2 GABAAR (Homo sapiens, UniProt P14867+P18507+P47870); test: Whole-cell patch-clamp of GABA-evoked currents, transfected HEK293 cells; type: cell-based; conditions: for Hillslope: GABAAR concentration-response curve; for percentage change in peak current modulation / IC50: GABAAR; for percentage change in peak current modulation: alkaloid 300 µM co-applied with subsaturated GABA, mean ± SE; for IC50: reduction of GABA-evoked current, n = 4
T1 construct: expressed in transfected cells; host or cells: HEK293
T1 sequence (P18507 40-475): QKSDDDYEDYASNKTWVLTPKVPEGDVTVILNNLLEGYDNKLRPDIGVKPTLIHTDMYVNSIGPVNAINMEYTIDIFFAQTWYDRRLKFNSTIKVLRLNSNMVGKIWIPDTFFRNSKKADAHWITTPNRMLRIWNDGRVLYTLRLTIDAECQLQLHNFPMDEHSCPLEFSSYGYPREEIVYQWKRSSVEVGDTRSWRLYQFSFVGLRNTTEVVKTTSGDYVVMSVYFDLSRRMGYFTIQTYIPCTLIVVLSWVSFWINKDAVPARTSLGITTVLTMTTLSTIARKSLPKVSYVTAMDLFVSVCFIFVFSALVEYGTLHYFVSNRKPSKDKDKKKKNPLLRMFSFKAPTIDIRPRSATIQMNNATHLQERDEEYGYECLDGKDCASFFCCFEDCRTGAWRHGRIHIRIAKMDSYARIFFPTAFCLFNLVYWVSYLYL
T1 sequence (P14867 28-456): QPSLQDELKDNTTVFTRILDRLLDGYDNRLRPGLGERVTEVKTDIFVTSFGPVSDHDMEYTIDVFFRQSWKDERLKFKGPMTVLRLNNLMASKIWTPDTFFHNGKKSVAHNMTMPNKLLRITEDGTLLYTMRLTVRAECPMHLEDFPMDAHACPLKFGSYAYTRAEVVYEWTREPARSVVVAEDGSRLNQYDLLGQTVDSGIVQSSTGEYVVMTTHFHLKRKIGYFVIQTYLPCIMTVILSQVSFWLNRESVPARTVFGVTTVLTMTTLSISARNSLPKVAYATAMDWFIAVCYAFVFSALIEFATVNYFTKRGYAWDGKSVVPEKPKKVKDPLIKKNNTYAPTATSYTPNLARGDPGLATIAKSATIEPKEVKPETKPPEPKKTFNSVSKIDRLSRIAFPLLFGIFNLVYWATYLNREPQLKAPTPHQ
T1 sequence (P47870 26-512): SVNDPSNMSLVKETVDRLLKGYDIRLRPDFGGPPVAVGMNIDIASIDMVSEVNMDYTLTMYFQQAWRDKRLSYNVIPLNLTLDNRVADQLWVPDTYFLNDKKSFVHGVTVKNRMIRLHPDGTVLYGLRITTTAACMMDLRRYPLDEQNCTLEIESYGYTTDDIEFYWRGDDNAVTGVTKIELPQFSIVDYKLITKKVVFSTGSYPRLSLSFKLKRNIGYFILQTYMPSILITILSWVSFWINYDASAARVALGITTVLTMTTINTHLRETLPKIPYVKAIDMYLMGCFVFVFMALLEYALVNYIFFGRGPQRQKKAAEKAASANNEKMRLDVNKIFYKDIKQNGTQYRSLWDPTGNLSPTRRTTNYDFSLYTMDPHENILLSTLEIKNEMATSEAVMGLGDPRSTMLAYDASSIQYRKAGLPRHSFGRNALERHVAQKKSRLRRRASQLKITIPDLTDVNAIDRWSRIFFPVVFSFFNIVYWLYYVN

α1 GlyR = biological target: T2, α1 GlyR (Homo sapiens, UniProt P23415); test: Whole-cell patch-clamp of glycine-evoked currents, transfected HEK293 cells; type: cell-based; conditions: for activity on GlyR currents (in words): GlyRs (α1 and α1β), single concentration 300 µM; for percentage change in peak current modulation: alkaloid 300 µM co-applied with subsaturated glycine, mean ± SE
T2 construct: expressed in transfected cells; host or cells: HEK293
T2 sequence (P23415 29-449 isoform P23415-2 limits assumed): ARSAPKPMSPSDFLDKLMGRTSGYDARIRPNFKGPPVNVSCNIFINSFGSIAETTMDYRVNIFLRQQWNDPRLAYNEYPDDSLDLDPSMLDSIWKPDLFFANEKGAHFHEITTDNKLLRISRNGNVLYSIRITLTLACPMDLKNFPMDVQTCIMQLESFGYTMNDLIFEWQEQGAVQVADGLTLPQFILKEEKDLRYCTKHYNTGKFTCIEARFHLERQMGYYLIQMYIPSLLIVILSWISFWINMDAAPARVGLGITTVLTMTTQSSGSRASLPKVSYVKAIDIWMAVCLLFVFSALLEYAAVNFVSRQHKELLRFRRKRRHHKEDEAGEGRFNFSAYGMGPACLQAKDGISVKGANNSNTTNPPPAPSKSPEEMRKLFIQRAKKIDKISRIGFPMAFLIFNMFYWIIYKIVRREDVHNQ
Procedure: (§1) HEK293 cells were obtained from Beijing Aisiyipu Biotechnology Co. Cells were cultured in Dulbecco’s Modified Eagle Medium containing 10% fetal bovine serum, 800 µg/mL G418, 200 µg/mL hygromycin B, and 100 µg/mL Zeocin at 37 °C and 5% CO2. Cells were transfected with plasmids encoding the following proteins: (i). nAChRα7 (CHRNA7, NM_000746; RIC3, NM_024557), (ii) GABA-α1 (NM_000806), GABA-β2 (NM_021911), and GABA-γ2 (NM_198904), and (iii) GlyR α1 (NM_000171) and GlyR β (NM_000824). To obtain β-containing GlyRs, an α/β transfection ratio of 1:5 was used; for γ2-containing GABAARs, the ratio was 1:2:5 of α/β/γ2.
(§2) For whole-cell recording, the […] contained 140 mM NaCl, 3.5 mM KCl, 1 mM MgCl2•6H2O, 2 mM CaCl2•2H2O, 10 mM D-glucose, 10 mM HEPES, and 1.25 mM NaH2PO4•2H2O, (pH 7.4). The […] solution contained 50 mM CsCl, 10 mM NaCl, 10 mM HEPES, 60 mM CsF, and 20 mM EGTA (pH 7.2). Briefly, during the diaphragm clamp operation, the glass capillary was drawn into a recording electrode using a microelectrode puller. Subsequently, the electrode filled with intracellular fluid was loaded into the microelectrode holder, and the cell-lined coverslip was placed in the recording bath under an inverted microscope, followed by manipulation of the microelectrode manipulator to immerse the electrode into the extracellular fluid under an inverted microscope. Electrode resistance (Rpip) was recorded, and the electrode was gently positioned on the cell surface with negative pressure applied to establish a GΩ-level high-resistance seal. Fast capacitance compensation was performed, followed by additional suction to breach the cell membrane and form a whole-cell recording. Finally, slow capacitance compensation was performed, and experimental parameters such as series resistance (Rs) were recorded. Leakage compensation was not provided. Whole-cell patch-clamp recordings were performed at −70 mV using HEKA EPC-10 (HEKA Elektronik GmbH, Reutlingen, Germany) amplifiers. Data acquisition was performed using the HEKA PatchMaster. We aimed to study the allosteric regulation of GABAAR and GlyR by Gelsemium alkaloids, so the effects of the alkaloids on Gly- or GABA-evoked currents were determined via co-application of subsaturated agonist concentrations (EC10 and EC50) together with the alkaloid. The EC50 for α1 GlyR was 30 µM, whereas the EC10 for α1β2γ2 GABAAR was 3.0 µM. The choice of specific agonist concentration was determined based on previous studies. We first examined the effects of each Gelsemium alkaloid at a concentration of 300 µM on channel currents. The peak receptor currents for subsaturated concentrations of specific agonists and the peak receptor currents after administration of each drug were recorded, and the modulation percentage was calculated for each drug. The modulation percentage was calculated using Equation (1):Percentage change = ((Ialkaloid − Iagonist)/Iagonist),(1) where Ialkaloid denotes the current in the presence of a given concentration of alkaloid, and Iagonist denotes the amplitude of the control glycine or GABA current elicited by the activation of a given receptor. To construct the concentration-response curve, six graded concentrations (1 µM, 3 µM, 10 µM, 30 µM, 100 µM, and 300 µM) of each Gelsemium alkaloid were tested. The concentration-response curve parameters for alkaloid inhibition were obtained from the curve of the normalized concentration-response data points fitted using Equation (2):Iagonist = Imax (agonist)nH/((agonist)nH + (EC50) nH), (2) where Iagonist is the current in the presence of a given subsaturated concentration of GABA, and EC50 is the concentration required for the half-maximal response. Each drug was repeated four times per concentration, and the data were expressed as the mean ± SE All electrophysiological tests performed at 20 °C.

α1β GlyR = biological target: T3, α1β GlyR (Homo sapiens, UniProt P23415); test: as above; type: cell-based; conditions: α1βGlyR; alkaloid 300 µM co-applied with subsaturated glycine; mean ± SE
T3 construct: expressed in transfected cells; host or cells: HEK293
T3 sequence (P48167 23-497 partner, one chain of several): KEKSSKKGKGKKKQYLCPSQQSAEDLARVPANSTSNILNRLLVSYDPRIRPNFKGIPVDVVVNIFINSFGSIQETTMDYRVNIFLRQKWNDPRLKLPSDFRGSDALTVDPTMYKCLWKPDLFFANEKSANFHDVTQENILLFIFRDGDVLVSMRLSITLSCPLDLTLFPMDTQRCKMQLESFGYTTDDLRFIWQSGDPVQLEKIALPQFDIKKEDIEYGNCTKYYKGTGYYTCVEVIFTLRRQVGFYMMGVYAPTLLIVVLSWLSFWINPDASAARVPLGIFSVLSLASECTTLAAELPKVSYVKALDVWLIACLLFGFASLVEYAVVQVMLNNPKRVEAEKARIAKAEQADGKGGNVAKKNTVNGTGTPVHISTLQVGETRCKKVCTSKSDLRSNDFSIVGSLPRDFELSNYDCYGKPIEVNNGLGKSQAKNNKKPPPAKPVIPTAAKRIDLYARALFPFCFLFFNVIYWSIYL
Procedure: as §1, §2

nAChRα7 = biological target: T4, nAChRα7 (Homo sapiens, UniProt P36544); test: Whole-cell patch-clamp of acetylcholine ion channel currents, transfected HEK293 cells; type: cell-based; conditions: nACHR; alkaloid 300 µM; mean ± SE
T4 construct: expressed in transfected cells; host or cells: HEK293
T4 sequence (P36544 23-502): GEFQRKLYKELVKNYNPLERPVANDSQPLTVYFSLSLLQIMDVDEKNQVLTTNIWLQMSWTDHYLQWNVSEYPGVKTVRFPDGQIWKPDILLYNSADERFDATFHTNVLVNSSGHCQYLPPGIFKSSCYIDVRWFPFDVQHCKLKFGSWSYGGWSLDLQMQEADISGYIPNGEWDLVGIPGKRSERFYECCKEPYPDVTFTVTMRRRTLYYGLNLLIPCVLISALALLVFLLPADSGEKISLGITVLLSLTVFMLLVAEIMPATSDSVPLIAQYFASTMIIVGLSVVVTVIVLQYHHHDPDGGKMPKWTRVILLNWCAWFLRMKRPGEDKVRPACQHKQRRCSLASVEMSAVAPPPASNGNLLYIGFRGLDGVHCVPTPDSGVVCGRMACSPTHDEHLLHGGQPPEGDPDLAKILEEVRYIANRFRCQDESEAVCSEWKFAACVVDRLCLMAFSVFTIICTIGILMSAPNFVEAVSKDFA
Procedure: as §1
For whole-cell recording, the […] contained 140 mM NaCl, 3.5 mM KCl, 1 mM MgCl2•6H2O, 2 mM CaCl2•2H2O, 10 mM D-glucose, 10 mM HEPES, and 1.25 mM NaH2PO4•2H2O, (pH 7.4). […] Electrode resistance (Rpip) was recorded, and the electrode was gently positioned on the cell surface with negative pressure applied to establish a GΩ-level high-resistance seal. […] Finally, slow capacitance compensation was performed, and experimental parameters such as series resistance (Rs) were recorded. […] We aimed to study the allosteric regulation of GABAAR and GlyR by Gelsemium alkaloids, so the effects of the alkaloids on Gly- or GABA-evoked currents were determined via co-application of subsaturated agonist concentrations (EC10 and EC50) together with the alkaloid. […]

GABAAR = system: GABAAR; design: method as in PMID 32541553, PMID 32391682; conditions: read-out: EC50 for positive allosteric modulation of GABAAR; cited from earlier work
GlyR = conditions: read-out: IC50 for GlyR; cited from earlier work
[1] = α1GlyR, reduction of glycine-evoked current, n = 4, read-out: IC50

Row | Compound | Hillslope (α1β2γ2 GABAAR) | percentage change in peak current modulation (α1β2γ2 GABAAR) | IC50 (α1β2γ2 GABAAR) [µM] | IC50 (α1 GlyR) [µM] | activity on GlyR currents (in words) (α1 GlyR) | percentage change in peak current modulation (α1 GlyR; α1GlyR) | percentage change in peak current modulation (α1β GlyR) | EC50 (α1β2γ2 GABAAR) [µM] | IC50 (α1 GlyR; [1]) [µM] | percentage change in peak current modulation (nAChRα7) | EC50 (GABAAR) [µM] | IC50 (GlyR) [µM]
1 | C=C[C@]12CN(C)[C@@H]3[C@H]4CO[C@H](C[C@H]41)[C@]1(C(=O)Nc4ccccc41)[C@@H]32 [Gelsemine, gelsemine] | −0.9158 | −58.78% ± 1.74% | 171 | 10.4 | strong activity | −70.39% ± 4.85% | −92.18% ± 2.87% | – | – | – | – | –
2 | CCC1=N[C@H]2C[C@@]3(C(=O)N(OC)c4ccccc43)[C@H]3C[C@@H]1[C@@H]2CO3 [Gelsenicine, gelsenicine] | 0.8002 | 58.63% ± 5.56% | – | – | minimal effect | −13.64% ± 4.34% | −10.44% ± 5.99% | 192 | – | – | – | –
3 | C=C[C@]12CN(C)[C@@H]3[C@H]4CO[C@H](C[C@H]41)[C@]1(C(=O)N(OC)c4ccccc41)[C@@H]32 [Gelsevirine, gelsevirine] | −1.110 | −55.82% ± 0.35% | 252 | – | strong activity | −98.89% ± 0.68% | −99.06% ± 0.62% | – | 82.9 | 0.75% ± 0.65% | – | –
4 | C=C[C@@]12CN(C)[C@H]3C[C@]14C(=Nc1ccccc14)[C@H]1C[C@@H]2[C@@H]3CO1 [Koumine, koumine] | – | – | – | – | strong activity | −95.53% ± 0.70% | −87.29% ± 0.52% | – | 9.59 | 1.42% ± 0.00% | – | –
5 | CN1C(=O)CN=C(c2ccccc2)c2cc(Cl)ccc21 [diazepam] | – | – | – | – | – | – | – | – | – | – | ~0.005 | –
6 | O=C1C[C@@H]2OCC=C3CN4CC[C@]56c7ccccc7N1[C@H]5[C@H]2[C@H]3C[C@H]46 [strychnine] | – | – | – | – | – | – | – | – | – | – | – | ~0.18
7 | humantenirine | – | 41.66% ± 0.53% | – | – | minimal effect | −11.75% ± 4.34% | −16.82% ± 4.41% | – | – | – | – | –
